# Data: ChEMBL document CHEMBL1201862, “PubChem BioAssay data set” (2004)
# Active and inactive are the calls of the source.
# What was measured:
# Large T antigen = Large T antigen (Simian virus 40, UniProt P03070); assay type: functional, Betapolyomavirus macacae;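 note: Confirmatory-stage PubChem screen for compounds that inhibit SV40 T antigen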
# cells [1] = assay type: functional, cell-based
# [2] = molecular target: T1, Trace amine-associated receptor 1 (Homo sapiens, UniProt Q96RJ0); experiment: Fluorescence-based cell-based high throughput dose response assay to identify agonists of the human trace amine associated receptor 1 (TAAR1).; assay type: functional
# T1 sequence (Q96RJ0 whole entry): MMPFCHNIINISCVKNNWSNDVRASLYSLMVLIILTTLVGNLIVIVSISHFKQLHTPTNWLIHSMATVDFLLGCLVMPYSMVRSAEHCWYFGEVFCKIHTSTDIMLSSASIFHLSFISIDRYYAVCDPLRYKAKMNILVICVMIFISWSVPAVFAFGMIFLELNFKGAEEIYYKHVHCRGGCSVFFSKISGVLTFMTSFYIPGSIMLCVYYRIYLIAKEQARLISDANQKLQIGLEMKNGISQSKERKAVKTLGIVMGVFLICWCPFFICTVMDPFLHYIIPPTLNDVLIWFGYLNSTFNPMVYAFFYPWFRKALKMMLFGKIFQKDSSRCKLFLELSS
# cells [3] = assay type: functional, cell-based; remark: listed apart in the source
# [4] = molecular target: T2, DNA repair and recombination protein RAD54-like (Homo sapiens, UniProt Q92698); experiment: RAD54 Holliday junction migration blockers – biochemical, fluorescence, cherry-picked samples, dose series, confirmation (AID 651657); assay type: functional
# T2 sequence (Q92698 whole entry): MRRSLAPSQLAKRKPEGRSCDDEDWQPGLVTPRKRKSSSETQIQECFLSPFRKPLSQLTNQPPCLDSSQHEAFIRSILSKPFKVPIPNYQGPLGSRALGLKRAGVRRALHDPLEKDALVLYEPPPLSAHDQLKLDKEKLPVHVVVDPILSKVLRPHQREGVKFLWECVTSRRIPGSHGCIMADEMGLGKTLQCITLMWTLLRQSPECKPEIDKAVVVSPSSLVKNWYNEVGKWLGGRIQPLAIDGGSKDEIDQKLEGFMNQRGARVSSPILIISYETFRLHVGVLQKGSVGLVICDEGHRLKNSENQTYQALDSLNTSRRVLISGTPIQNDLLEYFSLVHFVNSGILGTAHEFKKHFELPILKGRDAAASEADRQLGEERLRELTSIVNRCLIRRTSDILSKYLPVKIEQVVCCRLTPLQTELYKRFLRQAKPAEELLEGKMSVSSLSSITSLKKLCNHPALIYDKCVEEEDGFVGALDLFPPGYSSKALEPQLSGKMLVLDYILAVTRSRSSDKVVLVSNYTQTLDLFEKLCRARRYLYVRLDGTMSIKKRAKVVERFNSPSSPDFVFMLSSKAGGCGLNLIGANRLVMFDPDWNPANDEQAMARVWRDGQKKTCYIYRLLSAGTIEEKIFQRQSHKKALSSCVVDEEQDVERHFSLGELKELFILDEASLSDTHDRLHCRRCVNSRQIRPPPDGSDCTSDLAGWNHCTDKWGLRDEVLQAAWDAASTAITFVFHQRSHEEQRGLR
# [5] = molecular target: T1, Trace amine-associated receptor 1; experiment: Counterscreen for agonists of the human trace amine associated receptor 1 (hTAAR1): Fluorescence-based cell-based high throughput dose response assay to identify hTAAR1 agonist that also desensitize TAAR1 receptor response.; assay type: functional
# [6] = viability loss in HepG2 hepatoma cells – cell-based, cherry-picks, set 5, cytotoxicity control, dose response (AID 1053118); assay type: functional
# Paired box protein Pax-8 = Paired box protein Pax-8 (Homo sapiens, UniProt Q06710); experiment: PAX8 transcriptional activity inhibition in RMG-I – RMG-I cells, luciferase, cherry-pick, dose response (AID 687027); assay type: functional, cell-based;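 note: luciferase reporter driven by Pax8 target thyroperoxidase promoter measured by SteadyGlo luminescence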
# [7] = OVCAR8 cell viability loss – plate reader, dry powder samples, PAX8 project, dose response (AID 743197); assay type: functional, cell-based; conditions: OVCAR-8
# [8] = general cell-killing toxicity readout – plate reader, dry powder samples, cytotoxicity control for PAX8 inhibitor project, dose response (AID 743021); assay type: functional, cell-based
# [9] = blockade of melanocortin 4 receptor signaling – cell-based, plate reader, cherry pick, counter-screen for LGR2 antagonist project, dose response (AID 743444); assay type: functional;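 note: transfected HEK 293 cells stimulated with alpha-MSH peptide; potency of inhibitors of the alpha-MSH evoked signal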
# [10] = Fluorescence-based cell-based high throughput dose response assay for inhibitors of the interaction of nucleotide-binding oligomerization domain containing 2 (NOD2) and the receptor-interacting serine-threonine kinase 2 (RIPK2).; assay type: functional; conditions: Homo sapiens
# [11] = reduction of Shn3 3'UTR-driven luciferase in osteoblasts – cell-based, Clone20 osteoblasts, firefly luciferase, cherry-picked, dose response (AID 624132); assay type: functional;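 note: firefly luciferase luminescence from reporter carrying the Shn3 3'UTR in osteoblasts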
# [12] = viability loss in HEK293 cells – cell-based, plate reader, cherry-picked samples, cytotoxicity control, dose response (AID 743446); assay type: functional
# [13] = blockers of bursicon-stimulated LGR2 cAMP reporter – cell-based, HEK293, CRE-luciferase reporter, cherry pick, set 2, dose response (AID 743343); assay type: functional;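 note: transfected cells were stimulated with diluted bursicon conditioned medium after compound addition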
# [14] = non-specific 3'UTR reporter inhibition in Clone20-Shn3RL – cell-based, Renilla luciferase, cherry-picked, counter-screen for Shn3 inhibitor project, dose response (AID 624133); assay type: functional
# [15] = A549 cell cytotoxicity, dose response, cytotoxicity control, plate reader, cherry-pick, antagonist series (AID 743412); assay type: functional, cell-based
# [16] = toxicity toward HepG2 liver cells – cell-based, plate reader, cherry-pick, antagonist series, cytotoxicity control, dose response (AID 743416); assay type: functional
# [17] = molecular target: COUP transcription factor 2 (Homo sapiens, UniProt P24468); experiment: Luminescence-based cell-based high throughput dose response assay to identify inhibitors of COUP-TFII (NR2F2).; assay type: functional;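 note: HEK293 cells transiently cotransfected with COUP-TFII expression vector and reporter; luciferase reporter luminescence driven by COUP-TFII from the pX2-168 reporter plasmid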
# [18] = molecular target: DNA (cytosine-5)-methyltransferase 1 (Homo sapiens, UniProt P26358); experiment: inhibition of DNA methylation by DNMT1 – biochemical, fluorescent molecular beacon, confirmation (AID 602386); assay type: functional
# [19] = viability loss in THP-1 monocytes – THP-1 cells, cytotoxicity control for Vif-APOBEC3G degradation inhibitor project, dose response (AID 1117359); assay type: functional; conditions: THP-1
# [20] = molecular target: Histone-lysine N-methyltransferase NSD2 (Homo sapiens, UniProt O96028); assay type: biochemical
# [21] = molecular target: Glucose-6-phosphate 1-dehydrogenase (Homo sapiens, UniProt P11413); experiment: inhibition of Homo sapiens G6PD, dose series – biochemical, fluorescence, selectivity assay for P. falciparum G6PD inhibitor project, dose response (AID 504792); assay type: functional
# Cytochrome P450 2C9 = Cytochrome P450 2C9 (Homo sapiens, UniProt P11712)
# H9c2 = experiment: cells; assay type: functional, cell-based; conditions: Rattus norvegicus, H9c2, Myocardium;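 note: confirmatory concentration-response retest of ultra-high-throughput screening hits for modulation of myocardial damage; cell death induced by hydrogen peroxide oxidative stress; compound pretreatment for 60 min then peroxide exposure for 2 h; potency is for protecting the cells against peroxide damage rather than for killing them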
# Major prion protein = Major prion protein (Homo sapiens, UniProt P04156); assay type: functional, cell-based
# cells [22] = experiment: cells
# Albumin = Albumin (Bos taurus, UniProt P02769); experiment: Counterscreen for inhibitors of T-cell receptor (TCR)-CD3 interaction: Fluorescence-based biochemical high throughput dose response assay to identify inhibitors of T-cell receptor (TCR)-CD3 interaction using a TAMRA-labeled BSA probe.; assay type: functional
# [23] = molecular target: DNA repair protein RAD52 homolog (Homo sapiens, UniProt P43351); assay type: functional, biochemical
# [24] = molecular target: T3, Ubiquitin-conjugating enzyme E2 N (Homo sapiens, UniProt P61088); assay type: functional;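 note: Dose-response confirmation in a TR-FRET assay detecting UBC13-driven polyubiquitin chain formation, inhibition measured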
# T3 sequence (P61088 whole entry): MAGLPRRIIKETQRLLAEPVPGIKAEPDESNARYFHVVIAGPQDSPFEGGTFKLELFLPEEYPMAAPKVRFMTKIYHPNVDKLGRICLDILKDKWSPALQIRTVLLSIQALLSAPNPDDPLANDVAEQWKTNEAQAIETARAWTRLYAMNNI
# [25] = molecular target: Potassium channel subfamily K member 3 (Homo sapiens, UniProt O14649); experiment: inhibition of human KCNK3 channel flux – CHO cells, FluxOR thallium flux, SAR follow-up (AID 652212); assay type: functional
# INS1 = experiment: INS-1E survival protection against cytokine death – cell-based, luminescence, retest, dose response (AID 449756); assay type: functional; conditions: Rattus norvegicus;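 note: cell death triggered by IL-1 beta plus TNF-alpha plus IFN-gamma mixture; protective hits raise ATP signal compared with cytokine alone wells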
# [26] = loss of viability in HepG2 cells – cell-based, CellTiter-Glo, cherry-picked, cytotoxicity control for Shn3 inhibitor project, dose response (AID 624134); assay type: functional
# HEK293 [27] = experiment: cells; assay type: functional, cell-based; conditions: Homo sapiens
# [28] = Luminescence Cell-Based Dose Retest to Confirm Inhibitors of Cancer Stem Cells. [Related pubchem assays (depositor defined):AID2717, AID2721]; assay type: functional; conditions: Homo sapiens
# HEK293 [29] = experiment: NOD2 signaling inhibitors in MDP-stimulated cells, cell-based, uHTS, luminescence (AID 2001); assay type: functional; conditions: Homo sapiens
# HEK293 [30] = experiment: inhibition of NOD1-driven NF-kB reporter – cell-based, luminescence, uHTS, primary screen (AID 1578); assay type: functional; conditions: Homo sapiens
# HEK293 [31] = experiment: cells; assay type: functional, cell-based; conditions: Homo sapiens; remark: listed apart in the source
# Cytochrome P450 2D6 = Cytochrome P450 2D6 (Homo sapiens, UniProt P10635);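 note: CYP2D6 member of a cytochrome P450 panel assay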
# [32] = Shn3 3'UTR reporter signal decrease – cell-based, Clone20 osteoblasts, firefly luciferase, cherry-pick, set 2, Schnurri-3 inhibitor project, dose response (AID 720490); assay type: functional;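 note: actives lower the luminescence signal as inhibitors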
compound,measurement,setting,value
OCCNc1nc(Nc2ccc(O)cc2)nc2ccccc12,IC50,Large T antigen,4.5 µM (active)
same,IC50,cells [1],> 29.9 µM (inactive)
same,EC50,[2],0.578 µM (active)
same,EC50,cells [3],> 29.9 µM (inactive)
same,AC50,[4],38.6 µM (active)
same,IC50,[5],1.64 µM (active)
CO[C@@H]1CN(C)C(=O)c2cc(NC(=O)Nc3ccc(Cl)c(Cl)c3)ccc2OC[C@H](C)NC[C@@H]1C,AC50,[6],> 52 µM (inactive)
COc1ccccc1C#Cc1ccc2c(c1)O[C@@H](CN(C)Cc1ccncc1)[C@H](C)CN([C@@H](C)CO)S2(=O)=O,AC50,Paired box protein Pax-8,2.84 µM (active)
same,AC50,[7],33 µM (active)
same,AC50,[8],33.2 µM (active)
CC1CC(C)(O)CC(C(O)CC2CC(=O)NC(=O)C2)C1=O (stereo unspecified) [RESACTIN A],AC50,[9],1.14 µM (active)
same,AC50,Paired box protein Pax-8,< 0.26 µM (active)
same,IC50,[10],49.7 µM (inactive)
same,AC50,[11],0.339 µM (active)
same,AC50,[12],0.757 µM (active)
same,AC50,[13],0.441 µM (active)
same,AC50,[14],6.15 µM (active)
same,AC50,[15],0.424 µM (active)
same,AC50,[16],0.945 µM (active)
same,IC50,[17],0.36 µM (active)
COC1=C(N)C(=O)c2nc(C)ccc2C1=O,IC50,[18],4.94 µM (active)
same,CC50,[19],20.8 µM (active)
same,AC50,[20],0.61 µM (active)
same,IC50,[21],59.6 µM (inactive)
Nc1ncc(-c2ccccc2)n1CC1CCCO1 (stereo unspecified),AC50,Cytochrome P450 2C9,14.1 µM (inconclusive)
same,IC50,H9c2,> 79 µM (inactive)
same,AC50,[20],> 20 µM (inactive)
COc1ccc(-c2nc3ccc(Br)cn3c2Cc2cccc(Cl)c2)cc1OC,IC50,Major prion protein,5.35 µM (active)
same,IC50,cells [22],> 138 µM (inactive)
O=C(N/N=C/c1cc(Cl)cc([N+](=O)[O-])c1O)c1cccc(S(=O)(=O)N2CCOCC2)c1,IC50,Albumin,> 94.1 µM (inactive)
CCC[C@@H](CN1CCC[C@H]1CN1C(N)=NC[C@H]1CC(C)C)N1C[C@@H](Cc2ccccc2)N(CCCC2CCCC2)C1=N,AC50,[23],19.5 µM (active)
same,IC50,[24],> 20 µM (inactive)
CNC(=S)NNC(=O)c1cccn(Cc2ccc(Cl)cc2Cl)c1=O,IC50,Albumin,> 94.1 µM (inactive)
CCOc1ccccc1NC(=O)c1cccc(NC(=O)c2ccc(C(F)(F)F)cc2)c1,IC50,[25],0.22 µM (active)
CCc1nonc1NC(=O)c1oc2cc(Br)ccc2c1C,IC50,Major prion protein,3.55 µM (active)
same,IC50,cells [22],> 138 µM (inactive)
OC(c1cc(-c2ccc(C(F)(F)F)cc2)nc(C(F)(F)F)c1)C1CCCCN1 (stereo unspecified) [ENPIROLINE],AC50,INS1,6.95 µM (active)
same,AC50,Paired box protein Pax-8,17.9 µM (active)
same,AC50,[11],4.73 µM (active)
same,AC50,[14],3.85 µM (active)
same,AC50,[26],6.6 µM (active)
same,AC50,[8],41.7 µM (active)
Cc1ccc(-c2nc(NCCCN(C)C)c3ccccc3n2)cc1,AC50,[4],10.6 µM (active)
same,AC50,[23],7.08 µM (active)
Fc1ccc2[nH]c3c(N4CCc5ccccc5C4)ncnc3c2c1,IC50,HEK293 [27],1.51 µM (active)
same,AC50,[11],0.466 µM (active)
same,AC50,[14],24.1 µM (active)
same,AC50,[28],13.8 µM (active)
same,IC50,HEK293 [29],1.27 µM (active)
same,CC50,[19],> 40 µM (active)
same,EC50,HEK293 [30],3.14 µM (active)
same,IC50,HEK293 [31],12.4 µM (active)
same,AC50,[26],3.91 µM (active)
same,IC50,[17],5.24 µM (active)
Cc1ccc2c(c1)nnn2C1CCN(S(=O)(=O)c2ccc(C(=O)N3C(C)CCCC3C)cc2)CC1 (stereo unspecified),AC50,Cytochrome P450 2D6,0.158 µM (inconclusive)
same,AC50,INS1,4.53 µM (active)
same,AC50,[11],0.695 µM (active)
same,AC50,Cytochrome P450 2C9,15.8 µM (inconclusive)
same,AC50,[14],11.4 µM (active)
same,AC50,[26],60.8 µM (active)
same,AC50,[32],1.29 µM (active)
